From ChEMBL document CHEMBL1138537, “Small-molecule scaffolds for CYP51 inhibitors identified by high-throughput screening and defined by X-ray crystallography” (Antimicrob Agents Chemother, 2007)

Target: Sterol 14alpha-demethylase (Mycobacterium tuberculosis, UniProt P9WPP9, F78L)

## O=C(Nc1ccncc1)C(NS(=O)(=O)c1cccc2nsnc12)c1ccccc1 (stereo unspecified)
  Kd: 23.2 µM
